From patent publication US20030004201A1, “Medicament” (SmithKline Beecham p.l.c., priority 1990, published 2003)
Counter-ions that a name gives are not always drawn.

SMILES | melting point
CCCCc1nc2cc(Br)cc(C(=O)O)c2n1Cc1ccccc1Cl [Example 4, 5-Bromo-2-n-butyl-1-(2-chlorophenyl)methyl-1H-benzimidazole-7-carboxylic Acid] | 254 to 255 °C
CCCCc1ncc(CC(Cc2ccccc2)C(=O)O)n1Cc1ccccc1Cl (stereo not drawn) (as salt: hydrochloride) [Example 2, 3-[2-n-Butyl-1-{(2-chlorophenyl)methyl}-1H-imidazol-5-yl]-2-benzylpropanoic Acid] | 118 to 120 °C
CCCSc1ncc(C[C@H](NC(=O)CCC)C(=O)O)n1Cc1ccccc1Cl [Example 1, 3-[(2-Chlorophenyl)methyl]-2-propylthio-N-butyrylhistidine] | 178 to 181 °C
